Test results published in patent US20020002294A1, “Estrogenic compounds as antiangiogenic agents” (priority 1997, published 2002).

Tests used:
[1] = test system: 8 human breast cancer cell lines; assay: human tumor cell panel assay in vitro, breast panel; assay type: cell-based; set-up: key to Most Sensitive Cell Lines in Human Tumor Cell Panel Assay: Breast: Most sensitive cell panes are marked with ✓
Excerpt: (§1) The tubulin activities, breast cancer cell line activities, and the cell panels most sensitive to selected analogs are shown in Tables 3 and 4.

[2] = test system: new blood vessel cells (angiogenesis); assay: chick embryo chorioallantoic membrane (CAM) assay; assay type: in vivo; details: 100 mg disk, after 48 hours
Protocol: A suitable assay is the chick embryo chorioallantoic membrane (CAM) assay described by Crum et al. Science 230:1375 (1985). See also, U.S. Pat. No. 5,001,116, hereby incorporated by reference, which describes the CAM assay. Briefly, fertilized chick embryos are removed from their shell on day 3 or 4, and a methylcellulose disc containing the drug is implanted on the chorioallantoic membrane. The embryos are examined 48 hours later and, if a clear avascular zone appears around the methylcellulose disc, the diameter of that zone is measured.

[3] = test system: Ovarian cell lines (especially OVCAR-3); assay: Human Tumor Cell Panel Assay in vitro, ovarian panel; assay type: cell-based; set-up: key: Most sensitive cell panes are marked with ✓
Excerpt: as §1

[4] = test system: corneal neovascularization; assay: Mouse Corneal Micropocket Assay; assay type: in vivo, mice; details: 150 mg/kg, daily oral, 5 days
Protocol: Five- to 7-week-old SCID female mice were obtained from Massachusetts General Hospital (Boston, Mass.), Immunocompetent 7-9-week-old female C57BL/6 mice were obtained from ARCH Technical Services, Children's Hospital (Boston, Mass.). All animal studies were conducted according to protocols approved by the Animal Ethics Committee of Children's Hospital. Animals were anesthetized in a methoxyflurane (Pittman-Moore, Mundelein, Ill.) chamber prior to all procedures and were observed until fully recovered. Animals were sacrificed by a lethal dose of methoxyflurane.
Mouse Corneal Micropocket Assay To study the effect of microtubule inhibitors on angiogenesis in vivo, a model of angiogenesis in the mouse cornea was used in […] mice as described previously (Kenyon, B. B., Voest, E. E., Chen, C. C., Folkman, J., and D'Amato, R. J. A model of angiogenesis in the mouse cornea. Invest. Ophthalmol. & Visual Sci., 76: 1625-1632, 1996). In brief, after animals were anesthetized, corneal micropockets were created in both eyes with a modified von Graefe cataract knife. Into each pocket, a 0.4 mm ×0.4 mm×0.2 mm sucrose aluminum sulfate (Bukh Meditee, Copenhagen, Denmark) pellet coated with hydron polymer type NCC (IHN Sciences, New Brunswick, N.J.) containing 80 ng of bFGF or 160 ng of human recombinant […] (gift from Reprogenesis, Cambridge, Mass.) was implanted 1.0-1.2 mm from the limbal vessels (bFGF experiments) or 0.5-0.7 mm from the limbus (VEGF experiments). Erythromycin ointment (E. Fougera, Melville, N.Y.) was applied to each operated eye. The sucralfate acts to stabilize the growth factor and to slow its release from the hydron. Before testing each drug in this assay, we found the maximal dose that could be administered daily for 5 consecutive days without producing signs of toxicity (i.e., no hair loss, diarrhea, infection, lethargy, or weight loss). The treated groups received daily oral administration for 5 consecutive days of the stated dosage of 2-ME or a derivative thereof suspended in 0.5 g/100 ml of carboxymethylcellulose.
Treatment was started on the day of pellet implantation. […] For this purpose, the eyes of the mice were examined by slit-lamp biomicroscopy. Area of corneal neovascularization was calculated using a modified formula for a half-ellipse: Area (mm^2)=[π×clock hours×length (mm)×0.2 mm]. This formula provides the most accurate approximation of the area of neovascularization that grows toward the pellet. (Kenyon, B. B., Voest, E. E., Chen, C. C., Folkman, J., and D'Amato, R. J. A model of angiogenesis in the mouse cornea. Invest. Ophthalmol. & Visual Sci., 76: 1625-1632, 1996).

Melanoma cell lines = assay: Human Tumor Cell Panel Assay in vitro, melanoma panel; assay type: cell-based; set-up: key: Most sensitive cell panes are marked with ✓
Excerpt: as §1

[5] = test system: MDA-MB-435 estrogen receptor-negative human breast carcinoma cells; assay: In Vivo Tumor Growth Inhibition; set-up: species or system SCID mice; details: 29 days at 75 mg/kg p.o.
Protocol: To determine the antitumor activity of 2-ME and derivatives, SCID mice were s.c. inoculated with 10^6 MDA-MB-435 estrogen receptor-negative human breast carcinoma cells. Treatment was initiated on day 12 when tumor volumes reached 75-100 mm3 in volume. Drugs were suspended in 0.5 g/100 ml of carboxymethylcellulose with sterile glass beads, vortexed for 5 minutes, and administered p.o. in a volume of 0.1 ml. Control mice received 0.1 ml of carboxymethylcellulose p.o. Serial caliper measurements of perpendicular diameters were used to calculate tumor volume using the following: (shortest diameter)^2×(longest diameter)×0.52. T/C was calculated as the volume of treated tumors over the volume of control tumors. A smaller number indicates a greater inhibition of tumor growth.

With `COc1cc2c(cc1O)CCC1C2CCC2(C)C(O)CCC12` (stereo not shown) [NSC 659853, 2-Methoxyestradiol] the “Most Sensitive Cell Lines in Human Tumor Cell Panel Assay: Breast” value ([1]; 8 cell lines, only MCF-7 and T-47D express estrogen and progesterone receptors) was “✓”, the IC50 ([1]; Homo sapiens, cell panel assay in vitro, two values per cell separated by /, read-out: Tumor Panel: Average log IC50(Molar) against 8 human breast cancer cell lines (converted)) was 234 nM and the “inhibition of cell mitosis and growth of new blood vessels in CAM assay” value [2] was “found to inhibit cell mitosis and the growth of new blood vessels”. For the same compound, the “Most Sensitive Cell Lines in Human Tumor Cell Panel Assay: Ovarian” value [3] was “✓”, the “inhibition in corneal pocket assay” value [4] was 25% and the “Most Sensitive Cell Lines in Human Tumor Cell Panel Assay: Melanoma” value (Melanoma cell lines) was “✓”. For the same compound, the “T/C (volume of treated tumors over volume of control tumors)” value [5] was 0.40.
